Test results: patent US20030013658A1, “Small peptides and methods for treatment of asthma and inflammation” (Hisatek, LLC, priority 1997, published 2003)
Where no end group is shown, it is not given here. The star is where a group is joined. For = O=C*

Legend:
[1] = system: induced type II collagen arthritis; assay: Induced type II collagen arthritis mouse model; assay type: in vivo; settings: HK-X TC or footpad, 0.4 or 4 mg/kg for 20 days; method written in present tense
From the text: A mouse model is used to evaluate the effect of the compounds of the present invention on the histological, radiographic and clinical appearance of induced type II collagen arthritis. Mice: DBA/1(2) male mice weighing 25 gms (Jackson Laboratories, Bar Harbor, Me. or B&K Universal, Kent Wash.) are used for this work. This strain of mouse is susceptible to CIA by the injection of heterologous type II collagen. Bovine Collagen (BC), Complete Freund's Adjuvant (CFA) and Incomplete Freund's Adjuvant (ICFA) can be obtained from Sigma Chemical. Antigen for immunization is processed in 0.1 M acetic acid and formulated with CFA or ICFA. […] The degree of cellularity and areas of inflammation are quantified by using digitization of histological photomicrographs and applying standard area and point counting techniques as described above. […] The average area of soft tissue (pannus) of the joint is determined by analysis of computer digitized radiographs, along with changes in density of the adjacent hard tissues by comparison with internal standards included with each radiograph. […] The significance of the differences in density and area for control and experimental mice is assessed using paired T-tests at each time point. […] Swelling of hind paws is also quantitated by measuring the thickness of the ankle from the medial to the lateral malledus with a constant tension caliper. […]

[2] = system: mast cell degranulation induced by Compound 48/80; assay: Rat skin model: inhibition of Compound 48/80-induced mast cell degranulation (capillary permeability, trypan blue); assay type: in vivo; settings: 0.15 μg Compound 48/80
Description: The Rat Skin Model for Determination of Inhibition of Mast Cell Degranulation
In this model, the blood plasma of the experimental rat is labeled with the dye trypan blue. This soluble dye is carried in the bloodstream as a passive marker of plasma itself, and is excluded from live cells. Intact blood vessels, including the capillary system, retain this dye under normal circumstances. A compound, which induces degranulation of mast cells (resulting in leukotriene and histamine release), is injected into the skin to simulate allergen-induced degranulation. In these experiments, Compound 48/80 was used for this purpose. In the events following leukotriene and histamine release, capillary permeability is increased, and plasma, dyed blue, leaks from capillaries and dyes the skin surrounding the injection site blue. The area of bluing is a measure of the amount of Compound 48/80 injected.
A compound can be tested for “anti-leukotriene” and/or “anti-histamine” activity by mixing it with Compound 48/80 prior to injection.
The rat skin model was undertaken and validated. Various peptides were tested at a predetermined dose for anti-leukotriene and/or anti-histamine activity. The dose selected allowed a general comparison to f-Met-Leu-Phe, which was standard compound for comparison.
A “dose response” titration was performed for some compounds and compared with the standard compound. Observing serial decreases in the size areas of capillary permeability using serially smaller doses of the putative inhibitory compound validates the inhibition of leukotriene and/or histamine release observed in the initial predetermined dose test.
Reagents were obtained from Sigma or Aldrich, with the exception of ketamine, a veterinary anaesthetic that was obtained from various veterinary suppliers. The rats used were male Sprague-Dawley breed, 220-240 g at time of purchase from B&K International.
For the rat skin reaction, rats were anaesthetized with 0.25 ml 10 mg/ml ketamine. 1.0 ml trypan blue in saline (sterile filtered) was administered in a tail vein, and the back of the rat was shaved. Four intradermal injection sites per rat were used for test and control injections.
Compound 48/80 was prepared as a 1.5 mg/ml stock solution in saline. […] Serial dilutions in saline to working levels were prepared just prior to injection of each rat.
Peptides were prepared as a 23 mM stock solution in DMSO, and stored at −20° C. between experiments. At the time of use, the frozen stock solutions were thawed, and appropriate aliquots added to dilutions of Compound 48/80, along with appropriate amounts of DMSO, to result in the ratio of 5 μl DMSO to 0.1 ml aqueous Compound 48/80.
For injections, 0.1 ml […], +1/− test compounds were injected intradermally into anaesthetized, dyed, and shaved rats. Following a 15 minute incubation, the rats were sacrificed by cervical dislocation and the back skin was evulsed and placed on a light box. An image of the backlit skin was digitized using a CCD video capture camera and compatible hardware/software. The digitized image was analyzed using a scientific graphics analysis software package, and the areas of capillary permeability (bluing) were integrated and digital values were obtained for further analysis.
A dose response curve was generated using Compound 48/80 at various doses from ca. 0.01 μg through ca. 15 μg. […] A dose of 0.15 μg of Compound 48/80 was selected for conducting further tests.
Several f-Met-Leu peptides were tested for inhibition of induced degranulation in the rat skin model using 100 nanomoles of the test peptide and a dose of 0.15 μg Compound 48/80. An intrinsic zero-peptide-dose 48/80 control was included in each rat for each experiment, and the % of inhibition was expressed in relative terms to this control (0% inhibition). The percent mast cell degranulation produced by 48/80 was also determined.

f-Met-Leu-Phe-Phe (For-MLFF) [Example 9]
degree of arthritis [1]: found to reduce the degree of arthritis | inhibition of induced degranulation compared with standard f-Met-Leu-Phe ([2]; dose response): unexpectedly substantially better than that of the standard compound f-Met-Leu-Phe | dose response, inhibition of degranulation induced by Compound 48/80 ([2]; doses of 0 to about 230 nM peptide, FIG. 2 / FIG. 3): Surprisingly remarkable inhibition of degranulation induced by Compound 48/80 was clearly shown | % Degranulation ([2]; percent mast cell degranulation produced by 48/80, 100 nanomoles peptide): 1-3%
